Results taken from US8895504B2, “Amylin derivatives” (priority 2008, dated 2014).
*1 amine or outer side, *2 acyl side, *3 side chain or, on linkers, in order; H or OH if unused. Where a SMILES comes first, the peptide text is derived from it. Bridges are numbered along the chain shown (N, C = ends). The star is where a group is joined. C20 diacid = O=C(O)CCCCCCCCCCCCCCCCCCC(=O)*; γGlu = O=C(O)[C@H](CCC(=O)[*:2])N[*:1]

How the values were obtained:
[1] = Assay (V) PK - determination of T½ in mini-pig; type: in vivo; conditions: minipig, sc, terminal plasma half-life, subcutaneous, approx 2 nmol/kg, male Göttingen mini-pigs
Summary of the method: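 Male Göttingen mini-pigs (5–12 months, 7–35 kg) got a single s.c. neck injection of approx 2 nmol/kg; plasma sampled via central venous catheter predose to 240 h (some to 288 h). Amylin measured by sandwich ELISA; T½ = ln 2/λz from non-compartmental analysis of individual profiles.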

[2] = target: T1, Amylin 3(a) receptor (human calcitonin receptor (CTa) and RAMP-3) (Homo sapiens, UniProt O60896+P30988); test: Luciferase assay (III), BHK Amylin 3(a)//CRE-luc cells; type: cell-based; conditions: BHK cells with Amylin 3(a) receptor and CRE luciferase reporter, 4 hours incubation; read-out: Potency Luciferase
T1 construct: expressed in transfected cells; host or cells: BHK570 cells, stably transfected with a CRE-luciferase reporter
T1 sequence (O60896 24-148): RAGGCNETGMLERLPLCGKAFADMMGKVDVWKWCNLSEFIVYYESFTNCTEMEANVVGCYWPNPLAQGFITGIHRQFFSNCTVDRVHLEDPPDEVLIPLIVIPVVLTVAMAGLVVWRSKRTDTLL
T1 sequence (P30988 25-474): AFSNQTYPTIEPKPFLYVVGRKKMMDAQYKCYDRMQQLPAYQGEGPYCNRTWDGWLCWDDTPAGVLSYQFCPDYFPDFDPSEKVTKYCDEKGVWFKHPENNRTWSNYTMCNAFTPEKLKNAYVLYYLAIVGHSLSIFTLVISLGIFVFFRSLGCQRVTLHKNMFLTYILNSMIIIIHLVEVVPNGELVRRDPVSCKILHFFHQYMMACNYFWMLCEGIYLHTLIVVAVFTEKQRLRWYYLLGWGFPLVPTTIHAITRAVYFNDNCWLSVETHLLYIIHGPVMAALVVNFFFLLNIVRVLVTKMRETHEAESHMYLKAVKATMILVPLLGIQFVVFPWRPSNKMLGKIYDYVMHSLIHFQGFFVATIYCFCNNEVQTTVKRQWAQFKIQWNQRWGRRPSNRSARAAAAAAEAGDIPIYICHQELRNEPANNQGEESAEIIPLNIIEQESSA
Summary of the method: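 BHK570 cells stably expressing CTa, RAMP-3 and a CRE-luciferase reporter, seeded at about 20,000 cells/well and grown overnight. Cells were exposed to standard or sample for 4 h at 37° C in phenol red-free DMEM with 10% FBS and 10 mM Hepes, pH 7,4. Luminescence was read after 30 min LucLite at room temperature.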

[3] = Assay (VI) PK - determination of T½ in rat; type: in vivo; conditions: sc, terminal plasma half-life, subcutaneous, approx 20 nmol/kg, male Sprague Dawley rats
Protocol: Assay (VI) PK—Determination OF T½ in Rat
T½ is the terminal half-life=ln 2/λz of a compound in plasma. λz is the first order rate constant associated with the terminal (log-linear) portion of the plasma concentration-time curve and is estimated by linear regression of time vs. log concentration.
T½ values of the amylin analogues of the invention is determined by pharmacokinetic studies in Sprague Dawley male rats, from Taconic Europe and the principles of laboratory animal care are followed.
An acclimatization period of approximately 7 days was allowed before the animals entered the study. At start of the acclimatization period the rats were in the weight range of 300-400 g. The rats had permanent catheters inserted in a. carotis which were used for blood sampling.
The studies were conducted in an animal room which was illuminated to give a cycle of approx 12 hours light and 12 hours darkness. The animals were housed individually due to the catheters and had food and water ad lib. The animals were weighed on the days of dosing.
In the present studies the test substances were administered subcutaneously in approx 20 nmol/kg dose. The animals received a single subcutaneous injection to the neck using a 25 G needle with syringe. Each test substance was given to typically three but in some cases two or four animals.
A full plasma concentration-time profile, employing 8-10 sampling points, was obtained from each animal. In example blood samples were collected according to the following schedule:
After subcutaneous administration:
Predose (0), 0.5, 1, 1.5, 2, 4, 6, 12, 24, 48 and 72 hours after injection. At each sampling time, 0.08 to 0.10 ml of blood was drawn from each animal. The blood samples were taken via the catheter.
The blood samples were collected into EDTA test tubes. Blood samples were kept on ice for max 20 min. before centrifugation. Plasma was separated using centrifugation (i.e. at 4° C., 10 min., 1500 G) and was immediately transferred to Micronic tubes or PCR plates. Approximately 40 μl plasma was transferred and was stored at −20° C. until assayed. The plasma samples were assayed for the content of amylin using an ELISA assay.
The plasma concentration-time profiles were analysed by a non-compartmental pharmacokinetic analysis (NCA) using WinNonlin Professional 5.0 (Pharsight Inc., Mountain View, Calif., USA). NCA was performed using the individual plasma concentration-time profiles from each animal. T½ is the terminal half-life=ln 2/λz and was determined from λz, the first order rate constant associated with the terminal (log-linear) portion of the curve, estimated by linear regression of time vs. log concentration.
ELISA Plasma Assay for Amylin Quantification
The human amylin ELISA is a monoclonal antibody-based sandwich immunoassay for determining amylin levels in human plasma. The capture antibody recognizes human amylin, amylin acid (deamidated amylin), a 1-20 fragment of amylin, but not reduced amylin. The detection antibody binds to reduced or unreduced human amylin but not amylin acid and is complexed with streptavidin-alkaline phosphatase. The substrate, 4-methylumbelliferyl phosphate, is applied to the completed sandwich and the fluorescent signal, monitored at 355 nm/460 nm, is proportional to the amount of amylin present in the sample.

[4] = test system: food intake; test: Pharmacological Assay (I) - efficacy testing on appetite, ad libitum fed rat model; type: in vivo, Sprague Dawley (SD) rats; conditions: 30 nmol/kg vs vehicle, ad libitum fed rats, n=5-7, 0-48 hours
Text: Assays Pharmacological Assay (I)—Experimental Protocol for Efficacy Testing on Appetite with an Amylin Derivative, Using an Ad Libitum Fed Rat Model. Sprague Dawley (SD) rats from Taconic Europe, Denmark are used for the experiments. The rats have a body weight 200-250 g at the start of experiment. The rats arrive at least 10-14 days before start of experiment to allow acclimatization to experimental settings. During this period the animals are handled at least 2 times. After arrival rats are housed individually for one week in a reversed light/dark phase (meaning that lights are off during daytime and on during nighttime) for two weeks. Since rats are normally active and eat their major part of their daily food intake during the dark period, rats are dosed in the morning right before lights are turned off. This set-up results in the lowest data variation and highest test sensitivity. The experiment is conducted in the rats' home cages and rats have free access to food and water throughout the acclimatization period and the experiment period. Each dose of derivative is tested in a group of 5-8 rats. A vehicle group of 6-8 rats is included in each set of testing. Rats are dosed once according to body weight with a 0.01-3 mg/kg solution administered intraperitoneally (ip), orally (po) or subcutaneously (sc). The time of dosing is recorded for each group. After dosing, the rats are returned to their home cages, where they then have access to food and water. The food consumption is recorded individually continuously by on-line registration or manually every hour for 7 hours, and then after 24 h and sometimes 48 h. At the end of the experimental session, the animals are euthanized. The individual data are recorded in Microsoft excel sheets. Outliers are excluded after applying the Grubbs statistical evaluation test for outliers, and the result is presented graphically using the GraphPad Prism program.

| SMILES | half-life ([1]; in vivo) [h] | EC50 [2] [nM] | half-life ([3]; in vivo) [h] | half-life [1] [h] | half-life [3] [h] | food intake over a period of 48 hours [4] |
| --- | --- | --- | --- | --- | --- | --- |
| CC[C@H](C)[C@H](NC(=O)[C@@H]1CCCN1C(=O)CNC(=O)[C@H](Cc1ccccc1)NC(=O)[C@H](CC(N)=O)NC(=O)[C@H](CC(N)=O)NC(=O)[C@H](CO)NC(=O)[C@H](CO)NC(=O)[C@H](Cc1c[nH]cn1)NC(=O)[C@H](Cc1c[nH]cn1)NC(=O)[C@H](CC(C)C)NC(=O)[C@H](Cc1ccccc1)NC(=O)[C@H](CC(N)=O)NC(=O)[C@H](C)NC(=O)[C@H](CC(C)C)NC(=O)[C@H](CCCNC(=N)N)NC(=O)[C@H](CCC(N)=O)NC(=O)[C@@H](NC(=O)[C@H](C)NC(=O)[C@@H]1CSSC[C@H](NC(=O)[C@H](CCCCN)NC(=O)CC[C@H](NC(=O)CCCCCCCCCCCCCCCCCCC(=O)O)C(=O)O)C(=O)N[C@@H](CC(N)=O)C(=O)N[C@@H]([C@@H](C)O)C(=O)N[C@@H](C)C(=O)N[C@@H]([C@@H](C)O)C(=O)N1)[C@@H](C)O)C(=O)N[C@@H](CC(C)C)C(=O)N1CCC[C@H]1C(=O)N1CCC[C@H]1C(=O)N[C@H](C(=O)N[C@@H](CC(N)=O)C(=O)N[C@H](C(=O)NCC(=O)N[C@@H](CO)C(=O)N[C@@H](CC(N)=O)C(=O)N[C@H](C(=O)N[C@@H](Cc1ccc(O)cc1)C(N)=O)[C@@H](C)O)C(C)C)[C@@H](C)O [Example 5, N-alpha-[(S)-4-Carboxy-4-(19-carboxynonadecanoylamino)butyryl]-[His17]-pramlintide] ({C20 diacid-γGlu}-KCNTATCATQRLANFLHHSSNNFGPILPPTNVGSNTY-NH2; disulfide 2-7) | 70 | 0.1 | 16 | – | – | – |
| CC[C@H](C)[C@H](NC(=O)[C@@H]1CCCN1C(=O)CNC(=O)[C@H](Cc1ccccc1)NC(=O)[C@H](CC(N)=O)NC(=O)[C@H](CC(N)=O)NC(=O)[C@H](CO)NC(=O)[C@H](CO)NC(=O)[C@H](Cc1c[nH]cn1)NC(=O)[C@H](CO)NC(=O)[C@H](CC(C)C)NC(=O)[C@H](Cc1ccccc1)NC(=O)[C@H](CC(N)=O)NC(=O)[C@H](C)NC(=O)[C@H](CC(C)C)NC(=O)[C@H](CCCNC(=N)N)NC(=O)[C@H](CCC(N)=O)NC(=O)[C@@H](NC(=O)[C@H](C)NC(=O)[C@@H]1CSSC[C@H](NC(=O)[C@H](CCCCN)NC(=O)[C@H](CCCNC(=N)N)NC(=O)CC[C@H](NC(=O)CCCCCCCCCCCCCCCCCCC(=O)O)C(=O)O)C(=O)N[C@@H](CC(N)=O)C(=O)N[C@@H]([C@@H](C)O)C(=O)N[C@@H](C)C(=O)N[C@@H]([C@@H](C)O)C(=O)N1)[C@@H](C)O)C(=O)N[C@@H](CC(C)C)C(=O)N1CCC[C@H]1C(=O)N1CCC[C@H]1C(=O)N[C@H](C(=O)N[C@@H](CC(N)=O)C(=O)N[C@H](C(=O)NCC(=O)N[C@@H](CO)C(=O)N[C@@H](CC(N)=O)C(=O)N[C@H](C(=O)N[C@@H](Cc1ccc(O)cc1)C(N)=O)[C@@H](C)O)C(C)C)[C@@H](C)O [Example 20, N-alpha-[(S)-4-Carboxy-4-(19-carboxynonadecanoylamino)butyryl]-Arg-[Ser17]-pramlintide] ({C20 diacid-γGlu}-RKCNTATCATQRLANFLSHSSNNFGPILPPTNVGSNTY-NH2; disulfide 3-8) | – | 0.1 | – | 41 | 10 | – |
| CC[C@H](C)[C@H](NC(=O)[C@@H]1CCCN1C(=O)CNC(=O)[C@H](Cc1ccccc1)NC(=O)[C@H](CC(N)=O)NC(=O)[C@H](CC(N)=O)NC(=O)[C@H](CO)NC(=O)[C@H](CO)NC(=O)[C@H](CCCNC(=N)N)NC(=O)[C@H](Cc1c[nH]cn1)NC(=O)[C@H](CC(C)C)NC(=O)[C@H](Cc1ccccc1)NC(=O)[C@H](CC(N)=O)NC(=O)[C@H](C)NC(=O)[C@H](CC(C)C)NC(=O)[C@H](CCCNC(=N)N)NC(=O)[C@H](CCC(N)=O)NC(=O)[C@@H](NC(=O)[C@H](C)NC(=O)[C@@H]1CSSC[C@H](NC(=O)[C@H](Cc2c[nH]cn2)NC(=O)[C@H](Cc2c[nH]cn2)NC(=O)CC[C@H](NC(=O)CCCCCCCCCCCCCCCCCCC(=O)O)C(=O)O)C(=O)N[C@@H](CC(N)=O)C(=O)N[C@@H]([C@@H](C)O)C(=O)N[C@@H](C)C(=O)N[C@@H]([C@@H](C)O)C(=O)N1)[C@@H](C)O)C(=O)N[C@@H](CC(C)C)C(=O)N1CCC[C@H]1C(=O)N1CCC[C@H]1C(=O)N[C@H](C(=O)N[C@@H](CC(N)=O)C(=O)N[C@H](C(=O)NCC(=O)N[C@@H](CO)C(=O)N[C@@H](CC(N)=O)C(=O)N[C@H](C(=O)N[C@@H](Cc1ccc(O)cc1)C(N)=O)[C@@H](C)O)C(C)C)[C@@H](C)O [Example 47, N-alpha-[(S)-4-Carboxy-4-(19-carboxynonadecanoylamino)butyryl]-His-[His1,His17,Arg18]-pramlintide] ({C20 diacid-γGlu}-HHCNTATCATQRLANFLHRSSNNFGPILPPTNVGSNTY-NH2; disulfide 3-8) | – | 0.2 | – | 30 | – | effectively reducing food intake |
| CC[C@H](C)[C@H](NC(=O)[C@@H]1CCCN1C(=O)CNC(=O)[C@H](Cc1ccccc1)NC(=O)[C@H](CC(N)=O)NC(=O)[C@H](CC(N)=O)NC(=O)[C@H](CO)NC(=O)[C@H](CO)NC(=O)[C@H](Cc1c[nH]cn1)NC(=O)[C@H](Cc1c[nH]cn1)NC(=O)[C@H](CC(C)C)NC(=O)[C@H](Cc1ccccc1)NC(=O)[C@H](CC(N)=O)NC(=O)[C@H](C)NC(=O)[C@H](CC(C)C)NC(=O)[C@H](CCCNC(=N)N)NC(=O)[C@H](CCC(N)=O)NC(=O)[C@@H](NC(=O)[C@H](C)NC(=O)[C@@H]1CSSC[C@H](NC(=O)[C@H](Cc2c[nH]cn2)NC(=O)[C@H](Cc2c[nH]cn2)NC(=O)CC[C@H](NC(=O)CCCCCCCCCCCCCCCCCCC(=O)O)C(=O)O)C(=O)N[C@@H](CC(N)=O)C(=O)N[C@@H]([C@@H](C)O)C(=O)N[C@@H](C)C(=O)N[C@@H]([C@@H](C)O)C(=O)N1)[C@@H](C)O)C(=O)N[C@@H](CC(C)C)C(=O)N1CCC[C@H]1C(=O)N1CCC[C@H]1C(=O)N[C@H](C(=O)N[C@@H](CC(N)=O)C(=O)N[C@H](C(=O)NCC(=O)N[C@@H](CO)C(=O)N[C@@H](CC(N)=O)C(=O)N[C@H](C(=O)N[C@@H](Cc1ccc(O)cc1)C(N)=O)[C@@H](C)O)C(C)C)[C@@H](C)O [Example 27, N-alpha-[(S)-4-Carboxy-4-(19-carboxynonadecanoylamino)butyryl]-His-[His1,His17]-pramlintide] ({C20 diacid-γGlu}-HHCNTATCATQRLANFLHHSSNNFGPILPPTNVGSNTY-NH2; disulfide 3-8) | – | 0.1 | – | 64 | – | effectively reducing food intake |
